Results on 12 molecules are retold here after patent US6524616B1, “COMPOSITIONS AND METHODS FOR TREATING OR PREVENTING NEURODEGENERATION AND COGNITIVE DECLINE AND DYSFUNCTION ASSOCIATED WITH ALZHEIMER'S DISEASE, AGING, OTHER DEMENTIA RELATED DISORDERS AND ESTROGEN DEFICIENCY RELATED CONDITIONS” (priority 1999, dated 2003).

For data set [1] the following is noted: in vivo; cited from earlier work.
For data set [2], the system named is patients with Alzheimer's disease. The conditions noted are these: cited from earlier work; for Effects on Cognitive Function: cognitive decline in Alzheimer's disease.
A further data set has as its system liver. The settings on record: in vivo; cited from earlier work.
Another data set relates to patients. The settings on record: Tacrine 100 mg/day; cited from earlier work.
For a further data set, the system named is BuChE (blood). The conditions noted are these: read-out: IC50 BuChE, in vitro; cited from earlier work.
For data set [3], the system named is ovariectomized retired breeder female rats. The data set is described as follows: Radial arm maze test, Example 1 (10 months of treatment). The settings on record: oral in diet, given alone. In kind it is in vivo. The method, then: Eight-four retired breeder females (Sprague-Dawley), weighing 300-360 g (8-10 months old), were purchased from Harlan Sprague Dawley, Inc. The rats were housed in separate cages and were initially maintained on a 12:12 hour light/dark cycle with access to Chow diet and water ad libitum. All procedures done on the animals were approved by the Animal Care and Use Committee of Wake Forest University. Upon arrival, the rats were weighed, and then randomized into the 12 treatment groups using a stratified randomization scheme, stratifying by body weight.
Shown in Table 5 below is the 3×4 factorial study design and includes the number of rats that finished the maze tests. […]
After the training, the rats were tested twice per day (in the morning and afternoon) 4 consecutive days per week for two weeks. […] A visit to an arm was recorded if the rat reached three-fourths of the length of the arm. The maze performance was recorded as the number of correct choices in the first 8 visits. A mistake was counted if a rat reentered an arm from which the rat has already eaten the bait. […]
All data were analyzed using BMDP Statistical Software, version 7.0 (Los Angeles, Calif.). Uterine weights expressed as a percentage of body weight and body weight violated the assumption of equal variances, and were not normally distributed. […] Body weight, uterine weight, and maze data were analyzed by 2-way ANOVA. […]

The test system of the next data set is aged ovariectomized rats. Kind of data set: Radial arm maze test, Example 2 (chronic estrogen-deficient aged rats). It is filed as in vivo. On the procedure:
Thirty-six retired breeder female rats (8-10 months old) were purchased from Harlan Sprague Dawley, Inc. The rats were housed in separate cages and were initially maintained on a 12:12 hour light/dark cycle with access to Chow diet and water ad libitum. All procedures done on the animals were approved by the Animal Care and Use Committee of Wake Forest University. After bilateral ovariectomy, the rats were fed with a casein/lactalbumin-based control diet for about 12 months (until about 2 years of age). The rats were then evaluated in a 8-arm radial arm maze to determine their baseline working memory. […] The rats were tested in the maze at 1 and 3 months after the initiation of the treatments.
After 3 months of treatment, each of the 3 groups were divided randomly into two subgroups. One subgroup was given Hup A orally (0.3 mg/Kg of body weight) in addition to their control regimen or treatment with SPEs or E2 and the other subgroup received no Hup A. After 3 weeks of Hup A supplementation, working memory was reevaluated.
A pellet of fudge brownie (Little Debbie, Mckee Foods, Collegedale, Tenn.) was placed in each of the 8 food wells located at the end of each arm to serve as a reward. The rats were allowed to explore the maze for 10 min or until all eight rewards were eaten. The training session was terminated when the rats were able to eat all 8 rewards within 10 min.
After the training, the rats were tested once per day 4 consecutive days per week for two weeks. One day prior to the test, and during the first three test days, the food intake was reduced to 25% of the normal 40 g/day food intake. A visit to an arm was recorded if the rat reached three-fourths of the length of the arm. The maze performance was recorded as the number of correct choices in the first 8 visits. A mistake was counted if a rat reentered an arm from which the rat has already eaten the bait. A test session of a rat was terminated when the rat ate all eight rewards or 10 min had elapsed. […]

Turning to `CNC(=O)Oc1ccc2c(c1)[C@]1(C)CCN(C)[C@@H]1N2C` [Physostigmine], the half-life result in data set [1] is “short half-life”.

For `CC(C[N+](C)(C)C)OC(N)=O` (centres unmarked) [Bethanecol], in data set [2], the “Effects on Cognitive Function” value is listed as “Unchanged/Slight Improvement”.

For orientation: IC50 means the concentration needed to halve the response being measured. In the case of `Nc1c2c(nc3ccccc13)CCCC2` [Tacrine], the “Effects on Cognitive Function” value in data set [2] is recorded as “Unchanged to Significant Improvement”. The “improving symptoms of Alzheimer's disease” value in data set [2] (in vivo) is listed as “mildly effective”. In addition, the liver toxicity result in the data set on liver is listed as “toxic to the liver”. In the data set with patients, the “Abdominal Cramps” value is 38 Per Cent of Patients, the Diarrhea is 23 Per Cent of Patients, the Dizziness was 12 Per Cent of Patients and the “Excessive Sweating” value is listed as 4 Per Cent of Patients. Moreover, in the data set with patients, the Nausea was 25 Per Cent of Patients, the Polyuria is reported as 25 Per Cent of Patients, the Ptyalsim is 10 Per Cent of Patients and the Vomitin was 15 Per Cent of Patients. Also, the IC50 in the data set on BuChE (blood) was […].

As for `O=C1CCCN1CC#CCN1CCCC1` [Oxotremorine], the “Effects on Cognitive Function” value in data set [2] is reported as “Unchanged”.

Consider Lecithin, for which the “Effects on Cognitive Function” value in data set [2] is on record as “Unchanged/Slight Improvement”.

As for `CN1CCCC1c1cccnc1` (centres unmarked) [Nicotine], the “Effects on Cognitive Function” value in data set [2] was “Slight Improvement”.

As to Phosphatidylserine, the “Effects on Cognitive Function” value in data set [2] is “Slight Improvement”.

On to `CC12CCC3c4ccc(O)cc4CCC3C1CCC2O` (stereo not drawn) [estradiol, 17-β estradiol], for which, in data set [3], the “performance of the radial arm maze tests” value is recorded as “dosedependent improvement”. Also, the “maze performance (working memory) versus Ctl group” value in the data set on aged ovariectomized rats (at both 1 and 3 months of treatment, after 12 months of estrogen-deficiency) is listed as “significantly better”.

As to `COC(=O)C1=CCCN(C)C1` [Arecoline], the “Effects on Cognitive Function” value in data set [2] is reported as “Unchanged/Slight Improvement”.

As for `C/C=C1\[C@H]2C=C(C)C[C@]1(N)c1ccc(=O)[nH]c1C2` [Huperzine A, (5R, 9R, 11E)-5-amino-11-ethylidene-5,6,9,10-tetrahydro-7-methyl-5,9-methanocycloocta(b)pyridin2(1H)-one], the “Effects on Cognitive Function” value in data set [2] is given as “Significant Improvement”. For the same molecule, the figures for the “cognitive function (proportion of animals with improved working memory)” value in the data set with aged ovariectomized rats (Hup A 0.3 mg/Kg orally for 3 weeks added to E2 treatment) and in the data set on aged ovariectomized rats (Hup A 0.3 mg/Kg orally for 3 weeks added to SPE treatment) were “slightly improved” and “considerably improved”, respectively.

With `CC[C@@H]1C(=O)OC[C@@H]1Cc1cncn1C` [Pilocarpine], the “Effects on Cognitive Function” value in data set [2] is given as “Unchanged”.

Consider `Nc1ccncc1` [4-aminopyridine], for which, in data set [2], the “Effects on Cognitive Function” value was “Unchanged/Slight Improvement”.
